Patent US20060134102A1, “Lymphotoxin beta receptor agents in combination with chemotherapeutic agents” (Biogen Idec MA Inc., priority 2002, published 2006)

Tested on: KM-20L2 human colorectal adenocarcinoma
Assay: KM-20L2 xenograft model: growth of established KM-20L2 human colorectal tumors in athymic nude mice (tumor volume/weight, % T/C, Fa, Combination Index)
Assay type: in vivo

## Nc1ccn([C@@H]2O[C@H](CO)[C@@H](O)C2(F)F)c(=O)n1 [Gemcitabine, gemcitabine, reference compound]
Gem 10 mg/kg, Day 37
  Mean Tumor Volume: 723.7 cubic mm
  Mean Tumor Volume Decrease: 484.3 cubic mm
Gem 10 mg/kg, Day 41
  Mean Fraction Affected (Fa): 0.399
  Mean Fraction Affected/Fraction Unaffected (Fa/Fu): 0.664
  Mean Tumor Volume: 865.2 cubic mm
  Mean Tumor Volume Decrease: 574.2 cubic mm
Gem 10 mg/kg, Day 43
  Mean Fraction Affected (Fa): 0.393
  Mean Fraction Affected/Fraction Unaffected (Fa/Fu): 0.647
  Mean Tumor Volume: 975.7 cubic mm
  Mean Tumor Volume Decrease: 631.0 cubic mm
Gem 20 mg/kg, Day 9
  Mean Fraction Affected (Fa): 0.053
  Mean Fraction Affected/Fraction Unaffected (Fa/Fu): 0.056
  Mean Tumor Volume: 105.9 cubic mm
  Mean Tumor Volume Decrease: 5.9 cubic mm
Gem 20 mg/kg, Day 13
  Mean Fraction Affected (Fa): 0.357
  Mean Fraction Affected/Fraction Unaffected (Fa/Fu): 0.555
  Mean Tumor Volume: 111.0 cubic mm
  Mean Tumor Volume Decrease: 61.6 cubic mm
Gem 20 mg/kg, Day 16
  Mean Fraction Affected (Fa): 0.623
  Mean Fraction Affected/Fraction Unaffected (Fa/Fu): 1.655
  Mean Tumor Volume: 99.8 cubic mm
  Mean Tumor Volume Decrease: 165.2 cubic mm
Gem 20 mg/kg, Day 20
  Mean Fraction Affected (Fa): 0.748
  Mean Fraction Affected/Fraction Unaffected (Fa/Fu): 2.966
  Mean Tumor Volume: 101.1 cubic mm
  Mean Tumor Volume Decrease: 299.9 cubic mm
Gem 20 mg/kg, Day 23
  Mean Fraction Affected (Fa): 0.721
  Mean Fraction Affected/Fraction Unaffected (Fa/Fu): 2.579
  Mean Tumor Volume: 147.3 cubic mm
  Mean Tumor Volume Decrease: 379.9 cubic mm
Gem 20 mg/kg, Day 27
  Mean Fraction Affected (Fa): 0.663
  Mean Fraction Affected/Fraction Unaffected (Fa/Fu): 1.970
  Mean Tumor Volume: 225.1 cubic mm
  Mean Tumor Volume Decrease: 443.5 cubic mm
Gem 20 mg/kg, Day 30
  Mean Fraction Affected (Fa): 0.605
  Mean Fraction Affected/Fraction Unaffected (Fa/Fu): 1.530
  Mean Tumor Volume: 322.6 cubic mm
  Mean Tumor Volume Decrease: 493.6 cubic mm
Gem 20 mg/kg, Day 34
  Mean Fraction Affected (Fa): 0.578
  Mean Fraction Affected/Fraction Unaffected (Fa/Fu): 1.371
  Mean Tumor Volume: 443.0 cubic mm
  Mean Tumor Volume Decrease: 607.3 cubic mm
Gem 20 mg/kg, Day 37
  Mean Fraction Affected (Fa): 0.568
  Mean Fraction Affected/Fraction Unaffected (Fa/Fu): 1.314
  Mean Tumor Volume: 522.1 cubic mm
  Mean Tumor Volume Decrease: 685.9 cubic mm
Gem 20 mg/kg, Day 41
  Mean Fraction Affected (Fa): 0.532
  Mean Fraction Affected/Fraction Unaffected (Fa/Fu): 1.135
  Mean Tumor Volume: 674.3 cubic mm
  Mean Tumor Volume Decrease: 765.1 cubic mm
Gem 20 mg/kg, Day 43
  Mean Fraction Affected (Fa): 0.531
  Mean Fraction Affected/Fraction Unaffected (Fa/Fu): 1.134
  Mean Tumor Volume: 753.0 cubic mm
  Mean Tumor Volume Decrease: 853.7 cubic mm
Given Separately, Day 16
  Median Effect Dose: 14.1 mg/kg
Given Separately, Day 20
  Median Effect Dose: 10.1 mg/kg
Given Separately, Day 23
  Median Effect Dose: 10.8 mg/kg
Given Separately, Day 27
  Median Effect Dose: 12.8 mg/kg
Given Separately, Day 30
  Median Effect Dose: 14.1 mg/kg
Given Separately, Day 34
  Median Effect Dose: 14.8 mg/kg
Given Separately, Day 37
  Median Effect Dose: 15.0 mg/kg
Given Separately, Day 41
  Median Effect Dose: 16.8 mg/kg
Given Separately, Day 43
  Median Effect Dose: 16.9 mg/kg
Dose of the labelled agent when huCBE11 and Gemcitabine Combined (4:5), Day 16
  Median Effect Dose: 4.5 mg/kg
Dose of the labelled agent when huCBE11 and Gemcitabine Combined (4:5), Day 20
  Median Effect Dose: 1.7 mg/kg
Dose of the labelled agent when huCBE11 and Gemcitabine Combined (4:5), Day 23
  Median Effect Dose: 0.7 mg/kg
Dose of the labelled agent when huCBE11 and Gemcitabine Combined (4:5), Day 27
  Median Effect Dose: 0.9 mg/kg
Dose of the labelled agent when huCBE11 and Gemcitabine Combined (4:5), Day 30
  Median Effect Dose: 0.8 mg/kg
Dose of the labelled agent when huCBE11 and Gemcitabine Combined (4:5), Day 34
  Median Effect Dose: 0.8 mg/kg
Dose of the labelled agent when huCBE11 and Gemcitabine Combined (4:5), Day 37
  Median Effect Dose: 0.5 mg/kg
Dose of the labelled agent when huCBE11 and Gemcitabine Combined (4:5), Day 41
  Median Effect Dose: 0.7 mg/kg
Dose of the labelled agent when huCBE11 and Gemcitabine Combined (4:5), Day 43
  Median Effect Dose: 0.6 mg/kg
gemcitabine
  Activity by NCI criteria (% T/C of 42 or less): active
Gemcitabine 20 mg/kg Days 13-55, 10 mg/kg Days 16-55, 5 mg/kg Days 13-43, separate study
  Inhibition of tumor growth vs vehicle control: Significant inhibition of tumor growth
Gemcitabine 20 mg/kg, Day 16 through Day 34
  % T/C: ≤ 42%
Gemcitabine 25 mg/kg, Day 17 through Day 31
  % T/C: ≤ 42%
Gemcitabine 140, 100, 50 and 25 mg/kg, Day 10 to Day 41
  Inhibition of tumor growth vs saline control: Significant inhibition of tumor growth
Gemcitabine 140, 100 and 50 mg/kg, from Days 14 or 17 for the duration of the study
  % T/C: ≤ 42%
